Where two headings read alike, the source gives them in different places.
Experiments:
[1] = biological target: GST-tagged K-Ras mutant / His-tagged hSOS1 (Homo sapiens, UniProt P01116); test: HTRF assay, K-Ras mutant / SOS1 interaction; format: binding; details: read-out: IC50 against mutant Kras
How it was run: (§1)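 Tagged proteins: GST-K-Ras (wt or mutant), His-hSOS1; labels anti-GST-Eu/anti-6His-XL665; HEPES pH 7.4 buffer with DTT, BSA, Igepal. Read ≥10 min post-mix at ex 337 nm; IC50 from ratiometric data, duplicates.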

wildtype Kras / hSOS1 = biological target: T1, wildtype Kras / hSOS1 (Homo sapiens, UniProt P01116); test: HTRF assay, wildtype Kras / SOS1 interaction; format: binding; details: read-out: IC50 against wildtype Kras
T1 construct: made in house; host or cells: E. coli BL21 (DE3)
How it was run: as §1

[2] = compound nos. 102-196, general methodology of example 5

Sequence of GST-tagged K-Ras mutant / His-tagged hSOS1 (P01116 whole entry G12D, form open): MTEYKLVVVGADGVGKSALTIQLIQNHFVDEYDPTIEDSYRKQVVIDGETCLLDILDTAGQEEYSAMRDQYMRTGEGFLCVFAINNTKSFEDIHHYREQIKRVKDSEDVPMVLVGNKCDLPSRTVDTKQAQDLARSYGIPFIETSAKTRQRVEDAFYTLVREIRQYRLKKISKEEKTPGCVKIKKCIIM
T1 sequence (P01116 1-188 isoform P01116-2): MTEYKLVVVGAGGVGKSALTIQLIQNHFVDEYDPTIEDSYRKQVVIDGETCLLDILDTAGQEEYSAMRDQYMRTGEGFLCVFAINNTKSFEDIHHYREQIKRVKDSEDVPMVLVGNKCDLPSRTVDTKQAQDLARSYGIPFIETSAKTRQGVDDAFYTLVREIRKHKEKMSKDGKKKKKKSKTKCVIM

For `Cc1nc(N2CCCCCC2)c2cc(Cl)c(-c3cccc4sc(N)nc34)cc2n1` [Compound 645, 4-(4-(azepan-1-yl)-6-chloro-2-methylquinazolin-7-yl)-benzo[d]thiazol-2-amine], the IC50 ([1]; compound nos. 401-703) was greater than 500 nM and the IC50 (wildtype Kras / hSOS1; compound nos. 401-703) was greater than 500 nM.

In the case of `CCCC1CCCN(c2nc(OC[C@@H]3CCCN3C)nc3c(F)c(-c4cccc5sc(N)nc45)c(Cl)cc23)CC1` (stereo partly drawn) [Compound 646, 4-(6-chloro-8-fluoro-2-(((S)-1-methylpyrrolidin-2-yl)-methoxy)-4-(4-propylaze-pan-1-yl)quinazolin-7-yl)-benzo[d]thiazol-2-amine], the IC50 ([1]; compound nos. 401-703) is reported as greater than 500 nM and the IC50 (wildtype Kras / hSOS1; compound nos. 401-703) is reported as greater than 500 nM.

With `CN1CCC[C@H]1COc1nc(N2CCCCC(C(N)=O)C2)c2cc(Cl)c(-c3cccc4sc(N)nc34)c(F)c2n1` (stereo partly drawn) [Compound 455, 1-(7-(2-aminobenzo[d]-thiazol-4-yl)-6-chloro-8-fluoro-2-(((S)-1-methylpyr-rolidin-2-yl)methoxy)quin-zolin-4-yl)azepane-3-carboxamide] the IC50 ([1]; compound nos. 401-703) was less than 500 nM and the IC50 (wildtype Kras / hSOS1; compound nos. 401-703) was less than 500 nM.

`Oc1ccc2ccc(-c3c(Cl)cc4c(N5CC6CCC(C5)N6)nc(OCC56CCCN5CCC6)nc4c3F)cc2c1` [Compound 650, 7-(4-(3,8-diazabicyclo-[3.2.1]octan-3-yl)-6-chloro-8-fluoro-2-((tetrahydro-1H-pyrrolizin-7a(5H)-yl)meth-oxy)quinazolin-7-yl)naph-thalen-2-ol] was tested, and the IC50 ([1]; compound nos. 401-703) was greater than 500 nM and the IC50 (wildtype Kras / hSOS1; compound nos. 401-703) was greater than 500 nM.

Compound `Oc1cc(-c2ccc3c(N4CC5CCC(C4)N5)nc(OC[C@]45CCCN4C[C@@H](F)C5)nc3c2OCC(F)(F)F)c2ccccc2c1` [Compound 608, 4-(4-(3,8-diazabicyclo-[3.2.1]octan-3-yl)-2-(((2S,7aR)-2-fluorotetra-hydro-1H-pyrrolizin-7a(5H)-yl)methoxy)-8-(2,2,2-trifluoroethoxy)-quinazolin-7-yl)naph-thalen-2-ol] has an IC50 ([1]; compound nos. 401-703) greater than 500 nM and an IC50 (wildtype Kras / hSOS1; compound nos. 401-703) greater than 500 nM.

`Nc1nc2c(-c3c(Cl)cc4c(N5[C@@H]6CC[C@H]5CNC6)nc(OC[C@@]56CCCN5C[C@H](F)C6)nc4c3F)ccc(F)c2s1` [Compound 301, 4-(4-((1R,5S)-3,8-diaza-bicyclo[3.2.1]octan-8-yl)-6-chloro-8-fluoro-2-(((2R,7aS)-2-fluorotetra-hydro-1H-pyrrolizin-7a(5H)-yl)methoxy)quinazolin-7-yl)-7-fluorobenzo[d]thiazol-2-amine] was tested, and the IC50 ([1]; compound nos. 301-306) was less than 1500 nM and the IC50 (wildtype Kras / hSOS1; compound nos. 301-306) was less than 1500 nM.

`CN1CCC[C@H]1COc1nc(N2CCCCC(F)C2)c2cc(Cl)c(-c3cccc4sc(N)nc34)c(F)c2n1` (stereo partly drawn) [Compound 181, 4-(6-chloro-8-fluoro-4-(3-fluoroazepan-1-yl)-2-(((S)-1-methylpyrrolidin-2-yl)-methoxy)quinazolin-7-yl)-benzo[d]thiazol-2-amine] gave an IC50 [1, 2] of less than 500 nM and an IC50 (wildtype Kras / hSOS1; [2]) of less than 500 nM.

Compound `CN1CCC[C@H]1COc1nc(N2CCNCC(C)(C)C2)c2cc(Cl)c(-c3cccc4sc(N)nc34)c(F)c2n1` [Compound 118, 4-(6-chloro-4-(6,6-dimethyl-1,4-diazepan-1-yl)-8-fluoro-2-(((S)-1-methylpyrrolidin-2-yl)methoxy)quinazolin-7-yl)benzo[d]thiazol-2-amine] has an IC50 [1, 2] greater than 500 nM and an IC50 (wildtype Kras / hSOS1; [2]) greater than 500 nM.

`Nc1nc2c(-c3c(Cl)cc4c(N5CCCCC56CNC6)nc(OC[C@@]56CCCN5C[C@H](F)C6)nc4c3F)ccc(F)c2s1` [Compound 629, 4-(6-chloro-8-fluoro-2-(((2R,7aS)-2-fluorotetra-hydro-1H-pyrrolizin-7a(5H)-yl)methoxy)-4-(2,5-diaza-spiro[3.5]nonan-5-yl)quin-azolin-7-yl)-7-fluorobenzo-[d]thiazol-2-amine] gave an IC50 ([1]; compound nos. 401-703) greater than 500 nM and an IC50 (wildtype Kras / hSOS1; compound nos. 401-703) greater than 500 nM.

In the case of `Nc1nc2c(-c3c(Cl)cc4c(N5CC6CC5CCN6)nc(OC[C@@]56CCCN5C[C@H](F)C6)nc4c3F)ccc(F)c2s1` (stereo partly drawn) [Compound 686, 4-(4-(2,6-diazabicyclo-[3.2.1]octan-6-yl)-6-chloro-8-fluoro-2-(((2R,7aS)-2-fluorotetrahydro-1H-pyrrol-izin-7a(5H)-yl)methoxy)-quinazolin-7-yl)-7-fluoro-benzo[d]thiazol-2-amine], the IC50 ([1]; compound nos. 401-703) is reported as less than 500 nM and the IC50 (wildtype Kras / hSOS1; compound nos. 401-703) is reported as greater than 500 nM.

`Nc1nc2c(-c3c(Cl)cc4c(N5CCCNCC5)nc(OC[C@@]56CCCN5C[C@H](F)C6)nc4c3F)ccc(F)c2s1` [Compound 621, 4-(6-chloro-4-(1,4-diazepan-1-yl)-8-fluoro-2-(((2R,7aS)-2-fluorotetrahydro-1H-pyrrolizin-7a(5H)-yl)meth-oxy)quinazolin-7-yl)-7-fluorobenzo[d]thiazol-2-amine] gave an IC50 ([1]; compound nos. 401-703) of less than 500 nM and an IC50 (wildtype Kras / hSOS1; compound nos. 401-703) greater than 500 nM.

Compound `Nc1nc2c(-c3c(Cl)cc4c(N5CCOCC(O)C5)nc(OCC56CCCN5C[C@H](F)C6)nc4c3F)ccc(F)c2s1` (stereo partly drawn) [Compound 160, 4-(7-(2-amino-7-fluoro-benzo[d]thiazol-4-yl)-6-chloro-8-fluoro-2-(((2R)-2-fluorotetrahydro-1H-pyrrol-izin-7a(5H)-yl)methoxy)-quinazolin-4-yl)-1,4-oxazepan-6-ol] has an IC50 [1, 2] greater than 500 nM and an IC50 (wildtype Kras / hSOS1; [2]) of less than 500 nM.

Work on `CN1CCC[C@H]1COc1nc(N2CCNCC(F)(F)C2)c2cc(Cl)c(-c3cccc4scnc34)c(F)c2n1` [Compound 122, 4-(6-chloro-4-(6,6-difluoro-1,4-diazepan-1-yl)-8-fluoro-2-(((S)-1-methylpyrrolidin-2-yl)methoxy)quinazolin-7-yl)benzo[d]thiazole] yielded an IC50 [1, 2] greater than 500 nM and an IC50 (wildtype Kras / hSOS1; [2]) greater than 500 nM.

`CN1CCC[C@H]1COc1nc(N2CCNCC(F)(F)C2)c2cc(Cl)c(-c3cccc4nc(O)oc34)c(F)c2n1` [Compound 169, 7-(6-chloro-4-(6,6-difluoro-1,4-diazepan-1-yl)-8-fluoro-2-(((S)-1-methylpyrrolidin-2-yl)methoxy)quinazolin-7-yl)benzo[d]oxazol-2-ol] was tested, and the IC50 [1, 2] was greater than 500 nM and the IC50 (wildtype Kras / hSOS1; [2]) was greater than 500 nM.

Work on `COC1CCCCN(c2nc(OC[C@@H]3CCCN3C)nc3c(F)c(-c4cccc5sc(N)nc45)c(Cl)cc23)C1` (stereo partly drawn) [Compound 524, 4-(6-chloro-8-fluoro-4-(3-methoxyazepan-1-yl)-2-(((S)-1-methylpyrrolidin-2-yl)methoxy)quinazolin-7-yl)benzo[d]thiazol-2-amine] yielded an IC50 ([1]; compound nos. 401-703) of less than 500 nM and an IC50 (wildtype Kras / hSOS1; compound nos. 401-703) greater than 500 nM.

With `Nc1c(Cl)cccc1-c1c(Cl)cc2c(N3CC4CCC(C3)N4)nc(OCC34CCCN3CCC4)nc2c1F` [Compound 589, 2-(4-(3,8-diazabicyclo-[3.2.1]octan-3-yl)-6-chloro-8-fluoro-2-((tetrahydro-1H-pyrrolizin-7a(5H)-yl)meth-oxy)quinazolin-7-yl)-6-chloroaniline] the IC50 ([1]; compound nos. 401-703) was greater than 500 nM and the IC50 (wildtype Kras / hSOS1; compound nos. 401-703) was greater than 500 nM.

Work on `CN1CCC[C@H]1COc1nc(N2CCN(S(N)(=O)=O)CC(F)(F)C2)c2cc(Cl)c(-c3cccc4sc(N)nc34)c(F)c2n1` [Compound 150, 4-(7-(2-aminobenzo[d]-thiazol-4-yl)-6-chloro-8-fluoro-2-(((S)-1-methyl-pyrrolidin-2-yl)methoxy)-quinazolin-4-yl)-6,6-difluoro-1,4-diazepane-1-sulfonamide] yielded an IC50 [1, 2] greater than 500 nM and an IC50 (wildtype Kras / hSOS1; [2]) of less than 500 nM.

Compound `Nc1nc2c(-c3c(Cl)cc4c(N5CCNCC(F)(F)C5)nc(OCC56CCCN5CCC6)nc4c3F)ccc(F)c2s1` [Compound 109, 4-(6-chloro-4-(6,6-difluoro-1,4-diazepan-1-yl)-8-fluoro-2-((tetrahydro-1H-pyrrol-izin-7a(5H)-yl)methoxy)-quinazolin-7-yl)-7-fluoro-benzo[d]thiazol-2-amine] has an IC50 [1, 2] of less than 500 nM and an IC50 (wildtype Kras / hSOS1; [2]) of less than 500 nM.

`Nc1nc2c(-c3c(Cl)cc4c(N5CCOCC(O)C5)nc(OCC56CCCN5CCC6)nc4c3F)ccc(F)c2s1` (stereo not shown) [Compound 159, 4-(7-(2-amino-7-fluoro-benzo[d]thiazol-4-yl)-6-chloro-8-fluoro-2-((tetra-hydro-1H-pyrrolizin-7a(5H)-yl)methoxy)quinazolin-4-yl)-1,4-oxazepan-6-ol] gave an IC50 [1, 2] of less than 500 nM and an IC50 (wildtype Kras / hSOS1; [2]) of less than 500 nM.

`Nc1nc2c(-c3c(Cl)cc4c(N5CCNCC(F)(F)C5)nc(OC[C@@]56CCCN5C[C@H](F)C6)nc4c3F)ccc(F)c2s1` [Compound 133, 4-(6-chloro-4-(6,6-difluoro-1,4-diazepan-1-yl)-8-fluoro-2-(((2R,7aS)-2-fluorotetrahydro-1H-pyrrolizin-7a(5H)-yl)methoxy)quinazolin-7-yl)-7-fluorobenzo[d]thiazol-2-amine] showed an IC50 [1, 2] of less than 500 nM and an IC50 (wildtype Kras / hSOS1; [2]) of less than 500 nM.

`CN1CCC[C@H]1COc1nc(N2CCCCC(F)(F)C2)c2cc(Cl)c(-c3cccn4nc(N)nc34)c(F)c2n1` [Compound 182, (S)-8-(6-chloro-4-(3,3-difluoroazepan-1-yl)-8-fluoro-2-((1-methylpyrrol-idin-2-yl)methoxy)quin-azolin-7-yl)[1,2,4]triazolo-[1,5-a]pyridin-2-amine] gave an IC50 [1, 2] greater than 500 nM and an IC50 (wildtype Kras / hSOS1; [2]) greater than 500 nM.

`Nc1nc2c(-c3c(Cl)cc4c(N5CC6CNC(C6)C5)nc(OC[C@@]56CCCN5C[C@H](F)C6)nc4c3F)ccc(F)c2s1` (stereo partly drawn) [Compound 556, 4-(4-(3,6-diazabicyclo-[3.2.1]octan-3-yl)-6-chloro-8-fluoro-2-(((2R,7aS)-2-fluorotetrahydro-1H-pyrrol-izin-7a(5H)-yl)methoxy)-quinazolin-7-yl)-7-fluoro-benzo[d]thiazol-2-amine] gave an IC50 ([1]; compound nos. 401-703) of less than 500 nM and an IC50 (wildtype Kras / hSOS1; compound nos. 401-703) greater than 500 nM.

`CN1CCC[C@H]1COc1nc(N2CCC3CNCC3C2)c2cc(Cl)c(-c3cccc4sc(N)nc34)c(F)c2n1` (stereo partly drawn) [Compound 143, 4-(6-chloro-8-fluoro-2-(((S)-1-methylpyrrolidin-2-yl)-methoxy)-4-(octahydro-5H-pyrrolo[3,4-c]pyridin-5-yl)-quinazolin-7-yl)benzo[d]-thiazol-2-amine] was tested, and the IC50 [1, 2] was greater than 500 nM and the IC50 (wildtype Kras / hSOS1; [2]) was greater than 500 nM.
